This is an account of results in US6218393A, “Anthranilic acid derivatives as multi drug resistance modulators” (priority 1997, dated 2001).

The subject of data set [1] is AR 1.0 cells. The data set is described as follows: Potentiation of doxorubicin toxicity: proliferation assay (sulphorhodamine B). The class given is cell-based, mouse. The text has this: (a) Selected compounds of formula (I) were examined for their ability to potentiate the toxicity of doxorubicin in AR 1.0 cells.
Data set [2] relates to AR 1.0 cells. The data set is described as follows: Potentiation index with doxorubicin titration. It is filed as cell-based, mouse. To be noted: for Potentiation Index at RMA concentration 30 nM: Table C2, RMA 30 nM; for Potentiation Index at RMA concentration 100 nM: Table C2, RMA 100 nM; for Potentiation Index at RMA concentration 300 nM: Table C2, RMA 300 nM; for Potentiation Index at RMA concentration 500 nM: Table C2, RMA 500 nM; for Potentiation Index at RMA concentration 10 nM: Table C2, RMA 10 nM. In short, it runs like this:
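MDR-resistant mouse EMT6 subline AR 1.0 grown four days with a doxorubicin titration (0.263 nM-17.24 μM) plus a fixed compound concentration; proliferation by sulphorhodamine B. Potentiation index derived from doxorubicin IC50 alone versus with compound.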

The test system of data set [3] is AR 1.0 cells. In words: Drug accumulation assay: daunorubicin accumulation in AR 1.0 cells. To be noted: Mus musculus, 100% = accumulation with verapamil 100 μM, 1 hr, 37° C. It is filed as cell-based. In outline:
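AR 1.0 is the MDR-resistant subline of EMT6 mouse mammary carcinoma, grown in RPMI 1640 with 10% foetal calf serum and 2 mM glutamine at 37 °C, 5% CO2. Cells were seeded 48 h before the daunorubicin accumulation assay.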

Setting [4] is: Mus musculus, 96 h, compound alone, four day proliferation, read-out: Compound Toxicity (IC50).
The mark [5] stands for this setting: with fixed doxorubicin 0.34 μm, four days, 5760 min, read-out: Toxicity with Cytotoxic Agent (IC50).

As for `COc1cc2c(cc1OC)CN(CCc1ccc(NC(=O)c3ccccc3NC(=O)c3ccc(Cl)cc3)cc1)CC2` [compound 9496, 2-(4-chloro-benzoylamino)-N-{4-[2-(6,7-dimethoxy-3,4-dihydro-1H-isoquinolin-2-yl)-ethyl]-phenyl}-benzamide], the IC50 – broadly, the concentration that gives 50% inhibition – in the data set with AR 1.0 cells [1] (setting [4]) worked out at 4000 nM. Also, the IC50 with AR 1.0 cells [1] (setting [5]) came out at 30 nM. In the data set with AR 1.0 cells [2], the “Potentiation Index at RMA concentration 30 nM” value was 1.6, the “Potentiation Index at RMA concentration 100 nM” value is reported as 19, the “Potentiation Index at RMA concentration 300 nM” value is reported as 254 and the “Potentiation Index at RMA concentration 500 nM” value worked out at 825. The same molecule returned an IC50 in the data set with AR 1.0 cells [3] of 480 nM.

`COc1cc2c(cc1OC)CN(CCc1ccc(NC(=O)c3ccccc3NC(=O)c3cnc4ccccc4n3)cc1)CC2` [compound 9531, Quinoxaline-2-carboxylic. acid (2-{4-[2-(6,7-dimethoxy-3,4-dihydro-1H-isoquinolin-2-yl)-ethyl]-phenylcarbamoyl}-phenyl)-amide]: the IC50 in the data set on AR 1.0 cells [1] (setting [4]) is 1100 nM. Further, the IC50 with AR 1.0 cells [1] (setting [5]) was 5 nM. Also, in the data set with AR 1.0 cells [2], the “Potentiation Index at RMA concentration 10 nM” value came out at 30, the “Potentiation Index at RMA concentration 30 nM” value is on record as 120, the “Potentiation Index at RMA concentration 100 nM” value came out at 150 and the “Potentiation Index at RMA concentration 300 nM” value was found to be 160. For the same molecule, in the data set with AR 1.0 cells [3], inhibition was half-maximal at 35 nM (IC50).

With `COc1cc2c(cc1OC)CN(CCc1ccc(NC(=O)c3c(F)cccc3NC(=O)c3cnc4ccccc4n3)cc1)CC2` [compound 9564, Quinoxaline-2-carboxylic acid (2-{4-[2-(6,7-dimethoxy-3,4-dihydro-1H-isoquinolin-2-yl)-ethyl]-phenylcarbamoyl}-3-fluoro-phenyl)-amide], the IC50 turned out to be 400 nM in the data set on AR 1.0 cells [1] (setting [4]), 8 nM in the data set on AR 1.0 cells [1] (setting [5]) and 200 nM in the data set on AR 1.0 cells [3]. Moreover, the “Potentiation Index at RMA concentration 100 nM” value with AR 1.0 cells [2] is 129.

As to `COc1cc2c(cc1OC)CN(CCc1ccc(NC(=O)c3ccc(N)cc3NC(=O)c3cnc4ccccc4c3)cc1)CC2` [compound 9589, Quinoline-3-carboxylic acid (2-{4-[2-(6,7-dimethoxy-3,4-dihydro-1H-isoquinolin-2-yl)-ethyl]-phenylcarbamoyl}-5-amino-phenyl)-amide], the IC50 in the data set with AR 1.0 cells [1] (setting [4]) stood at 36800 nM. In the data set with AR 1.0 cells [2], the “Potentiation Index at RMA concentration 10 nM” value is 1 and the “Potentiation Index at RMA concentration 30 nM” value was 1. Further, the IC50 in the data set with AR 1.0 cells [3] amounted to 1000 nM.

Turning to `COc1cccc(C(=O)Nc2ccccc2C(=O)Nc2ccc(CCN3CCc4cc(OC)c(OC)cc4C3)cc2)c1` [compound 9517, 2-(3-Methoxy-benzoclamino)-N-{4-[2-(6,7-dimethoxy-3,4-dihydro-1H-isoquinolin-2-yl)-ethyl]-phenyl}-benzamide], the IC50 in the data set with AR 1.0 cells [1] (setting [4]) was 2000 nM; in the data set on AR 1.0 cells [1] (setting [5]), 50 nM; in the data set on AR 1.0 cells [3], 400 nM. Besides, the “Potentiation Index at RMA concentration 300 nM” value in the data set on AR 1.0 cells [2] is given as 40. Also, the “Potentiation Index at RMA concentration 500 nM” value in the data set with AR 1.0 cells [2] was 120.

In the case of `COc1cc2c(cc1OC)CN(CCc1ccc(NC(=O)c3cc4c(cc3NC(=O)c3cnc5ccccc5c3)OCO4)cc1)CC2` [compound 9578, Quinoline-3-carboxylic acid (6-{4-[2-(6,7-dimethoxy-3,4-dihydro-1H-isoquinolin-2-yl)-ethyl]-phenylcarbamoyl}-benzo[1,3]dioxoi-5-yl)-amide], the IC50 in the data set with AR 1.0 cells [1] (setting [4]) is 900 nM. Further, in the data set with AR 1.0 cells [2], the “Potentiation Index at RMA concentration 10 nM” value is on record as 43 and the “Potentiation Index at RMA concentration 30 nM” value worked out at 188. In the data set with AR 1.0 cells [3], this molecule came in with an IC50 of 84 nM.

Turning to `COc1cc2c(cc1OC)CN(CCc1ccc(NC(=O)c3cc(OC)c(OC)cc3NC(=O)c3cnc4ccccc4n3)cc1)CC2` [compound 9573, Quinoxaline-2-carboxylic acid (2-{4-[2-(6,7-dimethoxy-3,4-dihydro-1H-isoquinolin-2-yl)-ethyl]-phenylcarbamoyl}-4,5-dimethoxy-phenyl)-amide], the IC50 with AR 1.0 cells [1] (setting [4]) is 4000 nM. Also, in the data set on AR 1.0 cells [2], the “Potentiation Index at RMA concentration 10 nM” value is on record as 83, the “Potentiation Index at RMA concentration 30 nM” value is given as 94 and the “Potentiation Index at RMA concentration 100 nM” value was found to be 100. Also, the IC50 in the data set on AR 1.0 cells [3] is 9.5 nM.

Regarding `COc1cc2c(cc1OC)CN(CCc1ccc(NC(=O)c3ccc(F)cc3NC(=O)c3cnc4ccccc4c3)cc1)CC2` [compound 9571, Quinoline-3-carboxylic acid (2-{4-[2-(6,7-dimethoxy-3,4-dihydro-1H-isoquinolin-2-yl)-ethyl]-phenylcarbamoyl}-5-fluoro-phenyl)-amide], the IC50 amounted to 2000 nM with AR 1.0 cells [1] (setting [4]), 0.8 nM with AR 1.0 cells [1] (setting [5]) and 22 nM in the data set on AR 1.0 cells [3]. Further, in the data set on AR 1.0 cells [2], the “Potentiation Index at RMA concentration 10 nM” value turned out to be 38. Further, in the data set with AR 1.0 cells [2], the “Potentiation Index at RMA concentration 30 nM” value came out at 100. Besides, in the data set with AR 1.0 cells [2], the “Potentiation Index at RMA concentration 100 nM” value was determined as 100.

With `COc1cc2c(cc1OC)CN(CCc1ccc(NC(=O)c3ccc([N+](=O)[O-])cc3NC(=O)c3cnc4ccccc4n3)cc1)CC2` [compound 9541, Quinoxaline-2-carboxylic acid (2-{4-(2-(6,7-dimethoxy-3,4-dihydro-1H-isoquinolin-2-yl)-ethyl]-phenylcarbamoyl}-5-nitro-phenyl)-amide], in the data set on AR 1.0 cells [1] (setting [4]), the IC50 was found to be 860 nM. For the same molecule, the IC50 with AR 1.0 cells [1] (setting [5]) came to 6 nM. In the data set with AR 1.0 cells [2], the “Potentiation Index at RMA concentration 10 nM” value is given as 75, the “Potentiation Index at RMA concentration 30 nM” value is on record as 150, the “Potentiation Index at RMA concentration 100 nM” value is recorded as 160 and the “Potentiation Index at RMA concentration 300 nM” value is 160. Besides, half-maximal inhibition with AR 1.0 cells [3] (IC50) required 20 nM.

Turning to `CCCCCc1ccc(C(=O)Nc2ccccc2C(=O)NCCN2CCc3cc(OC)c(OC)cc3C2)cc1` [compound 9395, 2-(4-Pentyl-benzoylamino)-N-[2-(6,7-dimethoxy-3,4-dihydro-1H-isoquinolin-2-yl)-ethyl]-benzamide], the IC50 was 9000 nM in the data set with AR 1.0 cells [1] (setting [4]), 150 nM in the data set with AR 1.0 cells [1] (setting [5]) and 1300 nM in the data set with AR 1.0 cells [3]. In addition, in the data set with AR 1.0 cells [2], the “Potentiation Index at RMA concentration 500 nM” value is reported as 21.

As for `COc1cc2c(cc1OC)CN(CCc1ccc(NC(=O)c3ccc(Cl)cc3NC(=O)c3cnc4ccccc4c3)cc1)CC2` [compound 9586, Quinoline-3-carboxylic acid (2-{4-[2-(6,7-dimethoxy-3,4-dihydro-1H-isoquinolin-2-yl)-ethyl]-phenylcarbamoyl}-5-chloro-phenyl)-amide], in the data set with AR 1.0 cells [1] (setting [4]), the IC50 is 7400 nM. In addition, in the data set on AR 1.0 cells [2], the “Potentiation Index at RMA concentration 10 nM” value is recorded as 5 and the “Potentiation Index at RMA concentration 30 nM” value is listed as 6. This molecule also displayed an IC50 in the data set on AR 1.0 cells [3] of 180 nM.

Turning to `COc1cc2c(cc1OC)CN(CCNC(=O)c1cccc(O)c1NC(=O)c1ccc(C(C)C)cc1)CC2` [compound 9424, 2-(4-Isopropyl-benzoylamino)-N-[2-(6,7-dimethoxy-3,4-dihydro-1H-isoquinolin-2-yl)-ethyl]-3-hydroxy-benzamide], the values for the half-maximal inhibitory concentration (IC50) with AR 1.0 cells [1] (setting [4]), in the data set with AR 1.0 cells [1] (setting [5]) and with AR 1.0 cells [3] were 39000 nM, 2600 nM and 2500 nM, respectively. Also, in the data set on AR 1.0 cells [2], the “Potentiation Index at RMA concentration 500 nM” value was 37.

On to `COc1cc2c(cc1OC)CN(CCc1ccc(NC(=O)c3ccccc3NC(=O)c3ccc(C4CCCCC4)cc3)cc1)CC2` [compound 9461, 2-(4-Cyclohexyl-benzoylamino)-N-{4-[2-(6,7-dimethoxy-3,4-dihydro-1H-isoquinolin-2-yl)-ethyl]-phenyl}-benzamide], for which the figures for the IC50 in the data set on AR 1.0 cells [1] (setting [4]), in the data set with AR 1.0 cells [1] (setting [5]) and in the data set with AR 1.0 cells [3] were 7500 nM, 300 nM and 1800 nM, respectively. In the data set with AR 1.0 cells [2], the “Potentiation Index at RMA concentration 300 nM” value turned out to be 13. Moreover, the “Potentiation Index at RMA concentration 500 nM” value with AR 1.0 cells [2] is on record as 30.

As to `COc1cc2c(cc1OC)CN(CCc1ccc(NC(=O)c3ccccc3NC(=O)c3cccs3)cc1)CC2` [compound 9471, Thiophene-2-carboxylic acid (2-{4-[2-(6,7-dimethoxy-3,4-dihydro-1H-isoquinolin-2-yl)-ethyl]-phenylcarbamoyl}-phenyl)-amide], in the data set with AR 1.0 cells [1] (setting [4]), the IC50 worked out at 2600 nM. Besides, in the data set with AR 1.0 cells [2], the “Potentiation Index at RMA concentration 300 nM” value turned out to be 115 and the “Potentiation Index at RMA concentration 500 nM” value is 230. The IC50 in the data set on AR 1.0 cells [3] is 200 nM.

Take `COc1cc2c(cc1OC)CN(CCc1ccc(NC(=O)c3ccccc3NC(=O)c3ccc(Cl)c(Cl)c3)cc1)CC2` [compound 9536, 2-(3,4-Dichloro-benzoylamino)-N-{4-[2-(6,7-dimethoxy-3,4-dihydro-1H-isoquinolin-2-yl)-ethyl]-phenyl}-benzamide]: the half-inhibitory concentration (IC50) with AR 1.0 cells [1] (setting [4]) is 2650 nM; in the data set on AR 1.0 cells [1] (setting [5]), 15 nM; in the data set with AR 1.0 cells [3] it was 450 nM. For the same molecule, the “Potentiation Index at RMA concentration 100 nM” value with AR 1.0 cells [2] is listed as 32. In addition, the “Potentiation Index at RMA concentration 300 nM” value in the data set with AR 1.0 cells [2] turned out to be 128.

Take `COc1cc2c(cc1OC)CN(CCc1ccc(NC(=O)c3ccccc3NC(=O)c3ccccc3C)cc1)CC2` [compound 9497, 2-(2-Methyl-benzoylamino)-N-{4-[2-(6,7-dimethoxy-3,4-dihydro-1H-isoquinolin-2-yl}-ethyl]-phenyl}-benzamide]: the IC50 in the data set on AR 1.0 cells [1] (setting [4]) came out at 9000 nM; in the data set on AR 1.0 cells [1] (setting [5]), 80 nM; in the data set with AR 1.0 cells [3], 1600 nM. Besides, the “Potentiation Index at RMA concentration 300 nM” value in the data set on AR 1.0 cells [2] was determined as 52. Also, the “Potentiation Index at RMA concentration 500 nM” value with AR 1.0 cells [2] is listed as 200.

As for `COc1cc2c(cc1OC)CN(Cc1ccc(NC(=O)c3ccccc3NC(=O)c3cnc4ccccc4n3)cc1)CC2` [compound 9572, Quinoxaline-2-carboxylic acid {2-[4-(6,7-dimethoxy-3,4-dihydro-1H-isoquinolin-2-ylmethyl)-phenylcarbamoyl}-phenyl}-amide], the IC50 in the data set on AR 1.0 cells [1] (setting [4]) came out at 1700 nM. Besides, the IC50 with AR 1.0 cells [1] (setting [5]) came out at 14 nM. For the same molecule, in the data set on AR 1.0 cells [2], the “Potentiation Index at RMA concentration 10 nM” value stood at 2.7, the “Potentiation Index at RMA concentration 30 nM” value was found to be 25 and the “Potentiation Index at RMA concentration 100 nM” value was found to be 83. The molecule further displayed an IC50 in the data set with AR 1.0 cells [3] of 53 nM.
